Experimental data published in patent US12041939B2, “Enzyme-loaded pollen-mimicking microparticles for organophosphate detoxification of insect pollinators” (priority 2020, dated 2024).
Read-outs that look alike come from different tables or passages of the source.

Assays:
[1] = system: acetylcholinesterase (AChE); settings: versus malathion; cited from earlier work
[2] = system: honeybees; settings: cited from earlier work
[3] = system: bumblebees; experiment: contaminated pollen balls fed without enzyme treatment; settings: no enzyme treatment, after one week
[4] = system: AChE; experiment: AChE activity assay in homogenized honeybees with paraoxon; format: biochemical, honeybee; settings: 0.5 mM paraoxon
Source text: FIGS. 5A-5F. Characterization of OPT-PIM efficacy through AChE activity assay and bee survival experiments. FIG. 5A is a schematic showing that formation of thiocholine from acetylthiocholine through AChE cleavage can be characterized using 5,5′-dithiobis-2-nitrobenzoic acid (DTNB). DTNB and thiocholine react to form TNB^2-, the absorbance of which can be measured at 412 nm. […] For this experiment, n=9. The positive control is homogenized honeybee cells without any paraoxon treatment; the negative control is homogenized honeybee cells treated with paraoxon but no free OPT or OPT-PIMs treatment. […]. […] FIG. 5E is a plot of exposure to paraoxon (15 μg g^−1 pollen) over 10 days (n=50). FIG. 5F is a plot of exposure to malathion (750 μg g^−1 pollen) over 10 days (n=50). Statistical analysis was performed by using one-way ANOVA tests (FIGS. 5B and 5D). Data are presented as means and error bars represent the standard deviation.
Efficacy and survival studies. The characterization of OPT-PIM efficacy was further validated via quantification of AChE activity when mixed with the above described treatment and paraoxon. […] Acetylthiocholine cleavage via AChE can be used to quantify AChE activity, as the thiocholine product reacts with DTNB to form TNB^2−, which has an absorbance at 412 nm (FIG. 5A). […]

[5] = system: bumblebees; experiment: bumblebee survival on malathion-contaminated pollen balls; format: in vivo, Bombus impatiens
Source text: (§1) FIGS. 5A-5F. Characterization of OPT-PIM efficacy through AChE activity assay and bee survival experiments. FIG. 5A is a schematic showing that formation of thiocholine from acetylthiocholine through AChE cleavage can be characterized using 5,5′-dithiobis-2-nitrobenzoic acid (DTNB). DTNB and thiocholine react to form TNB^2-, the absorbance of which can be measured at 412 nm. […] For this experiment, n=9. The positive control is homogenized honeybee cells without any paraoxon treatment; the negative control is homogenized honeybee cells treated with paraoxon but no free OPT or OPT-PIMs treatment. […] FIG. 5E is a plot of exposure to paraoxon (15 μg g^−1 pollen) over 10 days (n=50). FIG. 5F is a plot of exposure to malathion (750 μg g^−1 pollen) over 10 days (n=50). Statistical analysis was performed by using one-way ANOVA tests (FIGS. 5B and 5D). Data are presented as means and error bars represent the standard deviation.
(§2) Bumblebees consume approximately […] depending on body mass. Based on this figure, pollen balls were initially formed containing 0.432 μg g^−1 paraoxon and 9.383 μg g^−1 malathion to feed without enzyme treatment as a negative control. […] Pollen balls were tested containing 50 μg g^−1 paraoxon over 12 hours to measure the OPT-PIM impact against acute exposure.

[6] = format: biochemical; settings: room temperature (25° C.)
Description: To gauge the time taken for treatment to lose functionality, bioactivity of each group treatment relative to OPT-PIMs was measured over time when kept at room temperature (25° C.). […] OPT-PIMs stored at 4° C. maintained almost 100% activity after 14 d (FIG. 3G). The microparticle's capacity for long-term bioactivity and protein sequestration indicates a practical shelf life of the design. Other enzyme-engineering efforts, such as genetic engineering of the catalytic and binding pockets, introducing additional chemical functionalities, such as disulfide bridges or fluorine moieties, or incorporation of additives such as sugars, polyols, detergents, polymers and amino acids, may improve the catalytic efficiency of OPT and further enhance its storage stability.

[7] = system: bumblebees; format: in vivo, Bombus impatiens
Source text: as §1, §2

[8] = cited from earlier work
[9] = format: biochemical; settings: methyl paraoxon, visible nitrophenol formation
Source text: Considering the loading efficiency decrease at higher PFCs and the intrinsic value of OPT, 5% was selected as a baseline to test OPT loading in PIMs. OPT presented 88.1% PLE (PLC=4.43%) at 5% PFC and 90.1% PLE (PLC=1.81%) at 2% PFC (FIG. 3C). […]. this dilution offered adequate sucrose to render the solution sufficiently attractive to bumblebees for consumption.

[10] = format: biochemical; settings: for relative activity in paraoxon hydrolysis: OPT 0.5 mg ml^−1, 0.5 mM paraoxon, normalized to OPT-PIMs at pH 7.4
[11] = format: biochemical
Description: Further experiments were aimed at better understanding the stability of the detoxifying system under significant thermal stress, as any treatment could experience high summer temperatures when administered to bees. […] Thus, experiments were conducted to determine whether microparticle encapsulation offers any protection from thermal denaturation. […]. […] The foregoing result is important for the potential application of the present design, as it has been shown capable of being administered at elevated temperatures.

[12] = cited from earlier work; remark: listed apart in the source
[13] = malathion hydrolysis assay (DTNB); format: biochemical; settings: OPT 0.5 mg ml^−1, 0.44 mM malathion

CCOC(=O)CC(SP(=O)(OC)OC)C(=O)OCC (centres unmarked) [Malaoxon]
strength of AChE inhibition relative to malathion [1]: 1000 fold

CCOC(=O)CC(SP(=S)(OC)OC)C(=O)OCC (centres unmarked) [malathion]
oral LD50 [2]: 0.38 μg/bee | oral LD50 for honeybees [2]: 0.38 μg per bee | health effect of contaminated pollen balls ([3]; 9.383 μg g^−1 malathion in pollen balls): no health deterioration

CCOP(=O)(OCC)Oc1ccc([N+](=O)[O-])cc1 [paraoxon]
relative AChE activity reduction ([4]; no free OPT or OPT-PIMs treatment (negative control)): ~72% | oral LD50 for honeybees [2]: 0.0175 μg per bee | health effect of contaminated pollen balls ([3]; 0.432 μg g^−1 paraoxon in pollen balls): no health deterioration

CCOP(=S)(OCC)Oc1ccc([N+](=O)[O-])cc1 [parathion]
oral LD50 [2]: 0.175 μg/bee

amidohydrolase phosphotriesterase [free OPT]
mortality ([5]; 750 μg g^−1 malathion pollen balls, after 5 days): 100% | survival ([5]; microcolonies fed malathion-contaminated pollen patties, within/after 5 days (overview)): 0% | activity retained on storage ([6]; after 7 days): ~30% | activity retained on storage ([6]; after 14 days): < 10% | mortality ([7]; 15 μg g^−1 paraoxon pollen balls, 50 μg ml^−1 OPT treatments, after 5 days): 100% | fatalities ([7]; 50 μg g^−1 paraoxon pollen balls, 12 hours): 62.5% | deactivation temperature ([8]; Co2+ OPT complex, pH 8.0-9.5): 60 °C | temperature at which thermostability is maintained ([8]; Co2+ OPT complex, pH 8.0-9.5): less than 45 °C | activity relative to maximum potential ([8]; pH 7.0): less than half of its maximum potential | AChE activity retained less than OPT-PIMs-treated samples [4]: 18.8% | OPT concentration sufficient to initiate rapid hydrolysis [9]: 0.5 mg/mL | relative activity in paraoxon hydrolysis ([10]; pH 4.8): 1.7% | relative activity in paraoxon hydrolysis ([10]; pH 7.4): 49.7% | Km ([10]; paraoxon, in 2 g ml^−1 sucrose): 4.8 mM | maximum velocity (Vmax) ([10]; paraoxon, in 2 g ml^−1 sucrose): 0.13 mM/min | relative activity in paraoxon hydrolysis after incubation ([11]; 30° C., relative to OPT-PIMs at 30° C.): half the bioactivity of OPT-PIMs | relative activity in paraoxon hydrolysis after incubation ([11]; 50° C., normalized to OPT-PIMs at 30° C.): 36.5% | relative activity in paraoxon hydrolysis after incubation ([11]; temperature>60° C., normalized to OPT-PIMs at 30° C.): 5.0% | Kcat Km^−1 [12]: 7.6e+07 M⁻¹ s⁻¹ | relative activity in malathion hydrolysis ([13]; pH 4.8): 0.6% | relative activity in malathion hydrolysis ([13]; pH 7.4): 17.1%
